In the assay the test system is calcium concentration in the serum. In words: Test 1: reduction of calcium level in serum after tail vein administration to rats. Type of assay: in vivo, rats of the Wistar strain. Particulars: 1 ml/kg tail vein, female Wistar rats. The protocol:
Six-weeks-old female rats of the Wistar strain (each group consisting of 4 rats) were used as the test animal, and the peptides of the present invention obtained in the examples given hereinafter were tested at concentrations adjusted with a 1% aqueous solution of sodium acetate (pH 4,0) to which 0.1% bovine serum albumin (BSA) was added. The solution was adjusted to a concentration of 166 μg/ml 830 ng/ml or 83 ng/ml and administered with the tail vein in an amount of 1 ml/kg. The back of the rat was fixed and blood was collected just before the administration, and at predetermined intervals after the administration, from the neck vein. The amount of blood collected each time was 0.3 ml. The sampled blood was subjected to centrifugal separation at 3500 rpm for 20 minutes to separate serum and the calcium content in the separated serum was measured by TBA-380 (supplied by Toshiba) using a Wako calcium-measuring kit (o-cpc method), and the ratio of reduction of the calcium concentration in the serum was determined.

Setting [1] is: concentration 830 ng/ml, 0 hour (just before administration).
The mark [2] stands for this setting: concentration 830 ng/ml, 1 hour.
The mark [3] stands for this setting: concentration 830 ng/ml, 2 hours.
The mark [4] stands for this setting: concentration 830 ng/ml, 4 hours.
Where [5] appears, read: concentration 830 ng/ml, 6 hours.
Where [6] appears, read: concentration 83 ng/ml, 0 hour (just before administration).
Where [7] appears, read: concentration 83 ng/ml, 2 hours.
Where [8] appears, read: concentration 83 ng/ml, 4 hours.
Setting [9] is: concentration 83 ng/ml, 6 hours.

Bridge positions count the residues as written; N and C are the ends. Peptide text beside a SMILES is read from it.

Turning to `CC[C@H](C)[C@H](NC(=O)[C@H](C)NC(=O)[C@@H](NC(=O)[C@H](CCC(N)=O)NC(=O)[C@@H]1CCCN1C(=O)[C@H](Cc1ccc(O)cc1)NC(=O)[C@@H](NC(=O)[C@H](CCC(N)=O)NC(=O)CNC(=O)[C@H](CCCCN)NC(=O)[C@H](Cc1c[nH]cn1)NC(=O)[C@H](CC(C)C)NC(=O)[C@H](CCC(=O)O)NC(=O)[C@H](CCC(N)=O)NC(=O)[C@H](CO)NC(=O)[C@H](CC(C)C)NC(=O)[C@H](CCCCN)NC(=O)CNC(=O)[C@H](CC(C)C)NC(=O)[C@H](CCSC)NC(=O)[C@@H]1CSSC[C@H](N)C(=O)NCC(=O)N[C@@H](CC(N)=O)C(=O)N[C@@H](CC(C)C)C(=O)N[C@@H](CO)C(=O)N[C@@H]([C@@H](C)O)C(=O)N1)[C@@H](C)O)[C@@H](C)O)C(=O)NCC(=O)N[C@@H](CO)C(=O)NCC(=O)N[C@H](C(=O)N1CCC[C@H]1C(N)=O)[C@@H](C)O` [Peptide No. 8] (H-CGNLSTCMLGKLSQELHKGQTYPQTAIGSGTP-NH2; disulfide 1-7), the “Serum calcium level as percent of pre-dose baseline” value (from here on “Serum calcium level as percent”) is recorded as 100.0% under setting [1]; 76.6% under setting [2]; 78.2% under setting [3]; 99.7% under setting [4]; 96.3% under setting [5].
For `CC[C@H](C)[C@H](NC(=O)[C@H](C)NC(=O)[C@@H](NC(=O)[C@H](CCC(N)=O)NC(=O)[C@@H]1CCCN1C(=O)[C@H](Cc1ccc(O)cc1)NC(=O)[C@@H](NC(=O)[C@H](CCC(N)=O)NC(=O)[C@H](CC(C)C)NC(=O)[C@H](CCCCN)NC(=O)[C@H](Cc1c[nH]cn1)NC(=O)[C@H](CC(C)C)NC(=O)[C@H](CCC(=O)O)NC(=O)[C@H](CCC(N)=O)NC(=O)[C@H](CO)NC(=O)[C@H](CC(C)C)NC(=O)[C@H](CCCCN)NC(=O)CNC(=O)[C@H](CC(C)C)NC(=O)CNC(=O)[C@@H]1CSSC[C@H](N)C(=O)NCC(=O)N[C@@H](CC(N)=O)C(=O)N[C@@H](CC(C)C)C(=O)N[C@@H](CO)C(=O)N[C@@H]([C@@H](C)O)C(=O)N1)[C@@H](C)O)[C@@H](C)O)C(=O)NCC(=O)N[C@H](C(=O)NCC(=O)N[C@@H](C)C(=O)N1CCC[C@H]1C(N)=O)C(C)C` [Peptide No. 9] (H-CGNLSTCGLGKLSQELHKLQTYPQTAIGVGAP-NH2; disulfide 1-7), the “Serum calcium level as percent” value stood at 100.0% under setting [6]; 81.0% (concentration 83 ng/ml, 1 hour); 87.5% under setting [7]; 84.0% under setting [8]; 83.2% under setting [9]; 100.0% under setting [1]. Further, the “Serum calcium level as percent” value is given as 72.8% under setting [2], 78.4% under setting [3], 86.8% under setting [4] and 82.4% under setting [5].
In the case of `CC[C@H](C)[C@H](NC(=O)[C@H](C)NC(=O)[C@@H](NC(=O)[C@H](CCC(N)=O)NC(=O)[C@@H]1CCCN1C(=O)[C@H](Cc1ccc(O)cc1)NC(=O)[C@@H](NC(=O)[C@H](CCC(N)=O)NC(=O)[C@H](CC(C)C)NC(=O)[C@H](CCCCN)NC(=O)[C@H](Cc1c[nH]cn1)NC(=O)[C@H](CC(C)C)NC(=O)[C@H](CCC(=O)O)NC(=O)[C@H](CCC(N)=O)NC(=O)[C@H](CO)NC(=O)[C@H](CC(C)C)NC(=O)[C@H](CCCCN)NC(=O)CNC(=O)[C@H](CC(C)C)NC(=O)[C@H](C)NC(=O)[C@@H]1CSSC[C@H](N)C(=O)NCC(=O)N[C@@H](CC(N)=O)C(=O)N[C@@H](CC(C)C)C(=O)N[C@@H](CO)C(=O)N[C@@H]([C@@H](C)O)C(=O)N1)[C@@H](C)O)[C@@H](C)O)C(=O)NCC(=O)N[C@H](C(=O)NCC(=O)N[C@@H](C)C(=O)N1CCC[C@H]1C(N)=O)C(C)C` [Peptide No. 10] (H-CGNLSTCALGKLSQELHKLQTYPQTAIGVGAP-NH2; disulfide 1-7), the “Serum calcium level as percent” value under setting [6] worked out at 100.0%; the “Serum calcium level as percent” value (concentration 83 ng/ml, 1 hour) is 68.7%; the “Serum calcium level as percent” value under setting [7] is reported as 77.9%; the “Serum calcium level as percent” value under setting [8] was found to be 90.6%; the “Serum calcium level as percent” value under setting [9] amounted to 81.6%; the “Serum calcium level as percent” value under setting [1] stood at 100.0%. The “Serum calcium level as percent” value under setting [2] was found to be 70.2%, the “Serum calcium level as percent” value under setting [3] is 65.4%, the “Serum calcium level as percent” value under setting [4] is given as 76.1% and the “Serum calcium level as percent” value under setting [5] is recorded as 84.2%.
With `CC[C@H](C)[C@H](NC(=O)[C@H](C)NC(=O)[C@@H](NC(=O)[C@H](CCC(N)=O)NC(=O)[C@@H]1CCCN1C(=O)[C@H](Cc1ccc(O)cc1)NC(=O)[C@@H](NC(=O)[C@H](CCC(N)=O)NC(=O)[C@H](CC(C)C)NC(=O)[C@H](CCCCN)NC(=O)[C@H](Cc1c[nH]cn1)NC(=O)[C@H](CC(C)C)NC(=O)[C@H](CCC(=O)O)NC(=O)[C@H](CCC(N)=O)NC(=O)[C@H](CO)NC(=O)[C@H](CC(C)C)NC(=O)[C@H](CCCCN)NC(=O)CNC(=O)[C@H](CC(C)C)NC(=O)[C@@H](NC(=O)[C@@H]1CSSC[C@H](N)C(=O)NCC(=O)N[C@@H](CC(N)=O)C(=O)N[C@@H](CC(C)C)C(=O)N[C@@H](CO)C(=O)N[C@@H]([C@@H](C)O)C(=O)N1)C(C)C)[C@@H](C)O)[C@@H](C)O)C(=O)NCC(=O)N[C@H](C(=O)NCC(=O)N[C@@H](C)C(=O)N1CCC[C@H]1C(N)=O)C(C)C` [Peptide No. 11] (H-CGNLSTCVLGKLSQELHKLQTYPQTAIGVGAP-NH2; disulfide 1-7), the “Serum calcium level as percent” value is on record as 100.0% under setting [6]; 69.7% (concentration 83 ng/ml, 1 hour); 82.8% under setting [7]; 83.9% under setting [8]; 81.0% under setting [9]; 100.0% under setting [1]. Besides, the “Serum calcium level as percent” value was 69.1% under setting [2], 62.7% under setting [3], 77.2% under setting [4] and 86.2% under setting [5].
Consider `CC[C@H](C)[C@H](NC(=O)[C@H](C)NC(=O)[C@@H](NC(=O)[C@H](CCC(N)=O)NC(=O)[C@@H]1CCCN1C(=O)[C@H](Cc1ccc(O)cc1)NC(=O)[C@@H](NC(=O)[C@H](CCC(N)=O)NC(=O)[C@H](CC(C)C)NC(=O)[C@H](CCCCN)NC(=O)[C@H](Cc1c[nH]cn1)NC(=O)[C@H](CC(C)C)NC(=O)[C@H](CCC(=O)O)NC(=O)[C@H](CCC(N)=O)NC(=O)[C@H](CO)NC(=O)[C@H](CC(C)C)NC(=O)[C@H](CCCCN)NC(=O)CNC(=O)[C@H](CC(C)C)NC(=O)[C@@H]1CCCN1C(=O)[C@@H]1CSSC[C@H](N)C(=O)NCC(=O)N[C@@H](CC(N)=O)C(=O)N[C@@H](CC(C)C)C(=O)N[C@@H](CO)C(=O)N[C@@H]([C@@H](C)O)C(=O)N1)[C@@H](C)O)[C@@H](C)O)C(=O)NCC(=O)N[C@H](C(=O)NCC(=O)N[C@@H](C)C(=O)N1CCC[C@H]1C(N)=O)C(C)C` [Peptide No. 12] (H-CGNLSTCPLGKLSQELHKLQTYPQTAIGVGAP-NH2; disulfide 1-7), for which the “Serum calcium level as percent” value reads like this: under setting [6], 100.0%; (concentration 83 ng/ml, 1 hour) 88.0%; under setting [7], 92.4%; under setting [8], 83.4%; under setting [9], 84.0%; under setting [1], 109.0%. Besides, the “Serum calcium level as percent” value runs as follows: under setting [2], 77.0%; under setting [3], 86.8%; under setting [4], 85.8%; under setting [5], 88.0%.

Source of the values: patent US6127519A, “Calcitonin derivatives” (Tsumura & Co., priority 1990, dated 2000).
